Results taken from ChEMBL document CHEMBL3120093 (J Med Chem, 2014).

How the values were obtained:
Liver microsome [1] = assay: Metabolic stability of the compound in rat liver microsomes assessed as […] formation at 10 uM after 30 mins; type: ADME; conditions: 0.5 h
Liver microsome [2] = assay: Metabolic stability of the compound in human liver microsomes assessed as cyanide adduct formation at 10 uM after 30 mins; type: ADME; conditions: 0.5 h
Liver microsome [3] = assay: Metabolic stability of the compound in human liver microsomes assessed as GSH adduct formation at 10 uM after 30 mins; type: ADME; conditions: 0.5 h
[4] = Plasma concentration in dog at 3 mg/kg, po after 24 hrs; type: ADME, organism-based, Canis lupus familiaris; parameters: dose 3 mg/kg, route oral
[5] = Oral bioavailability in dog at 3 mg/kg after 24 hrs; type: ADME, organism-based, Canis lupus familiaris; conditions: plasma
[6] = AUC in dog at 3 mg/kg, po after 24 hrs; type: ADME, organism-based, Canis lupus familiaris; parameters: time < 24 hr, dose 3 mg/kg, route oral; conditions: plasma
[7] = Volume of distribution in dog at 1 mg/kg, iv after 24 hrs; type: ADME, organism-based, Canis lupus familiaris; parameters: dose 1 mg/kg, route intravenous; conditions: in vivo
[8] = Half life in dog at 1 mg/kg, iv after 24 hrs; type: ADME, organism-based, Canis lupus familiaris; parameters: dose 1 mg/kg, route intravenous; conditions: in vivo
[9] = Clearance in dog at 1 mg/kg, iv after 24 hrs; type: ADME, organism-based, Canis lupus familiaris; parameters: dose 1 mg/kg, route intravenous; conditions: in vivo
[10] = Clearance in rat at 2 mg/kg, iv after 4 hrs; type: ADME, organism-based; parameters: dose 2 mg/kg, route intravenous; conditions: in vivo
[11] = Plasma concentration in rat at 5 mg/kg, po after 4 hrs; type: ADME, organism-based; parameters: dose 5 mg/kg, route oral
[12] = Drug uptake in rat liver at 5 mg/kg, po after 4 hrs; type: ADME, organism-based; parameters: dose 5 mg/kg, route oral; conditions: read-out: Drug uptake
[13] = AUC in rat at 5 mg/kg, po after 4 hrs; type: ADME, organism-based; parameters: time < 4 hr, dose 5 mg/kg, route oral; conditions: plasma
[14] = Half life in rat at 2 mg/kg, iv after 24 hrs; type: ADME, organism-based; parameters: dose 2 mg/kg, route intravenous; conditions: in vivo
[15] = Volume of distribution in rat at 2 mg/kg, iv after 24 hrs; type: ADME, organism-based; parameters: dose 2 mg/kg, route intravenous; conditions: in vivo
[16] = Clearance in rat at 2 mg/kg, iv after 24 hrs; type: ADME, organism-based; parameters: dose 2 mg/kg, route intravenous; conditions: in vivo
[17] = Permeability of the compound at PH 7.4 by PAMPA; type: ADME; conditions: read-out: permeability
Liver microsome [18] = assay: Metabolic stability of the compound in human liver microsomes assessed as GSH adduct formation at 10 uM after 30 mins; conditions: 0.5 h
[19] = Oral bioavailability in mouse at 20 mg/kg after 24 hrs; type: ADME, organism-based; conditions: plasma
[20] = AUC in mouse at 20 mg/kg, po after 24 hrs; type: ADME, organism-based; parameters: time < 24 hr, dose 20 mg/kg, route oral; conditions: plasma
[21] = Drug uptake in mouse liver at 20 mg/kg, po after 24 hrs; type: ADME, organism-based; parameters: dose 20 mg/kg, route oral; conditions: read-out: Drug uptake
[22] = Plasma concentration in mouse at 20 mg/kg, po after 24 hrs; type: ADME, organism-based; parameters: dose 20 mg/kg, route oral
[23] = Volume of distribution in mouse at 5 mg/kg, iv after 24 hrs; type: ADME, organism-based; parameters: dose 5 mg/kg, route intravenous; conditions: in vivo
[24] = Half life in mouse at 5 mg/kg, iv after 24 hrs; type: ADME, organism-based; parameters: dose 5 mg/kg, route intravenous; conditions: in vivo
[25] = Clearance in mouse at 5 mg/kg, iv after 24 hrs; type: ADME, organism-based; parameters: dose 5 mg/kg, route intravenous; conditions: in vivo
[26] = Plasma concentration in rat at 5 mg/kg, po after 24 hrs; type: ADME, organism-based; parameters: dose 5 mg/kg, route oral
[27] = Permeability from basolateral to apical side of human Caco2 cells; type: ADME, cell-based; conditions: Caco-2, read-out: permeability
[28] = Permeability from apical to basolateral side of human Caco2 cells; type: ADME, cell-based; conditions: Caco-2, read-out: permeability
[29] = Drug uptake in rat liver at 5 mg/kg, po after 24 hrs; type: ADME, organism-based; parameters: dose 5 mg/kg, route oral; conditions: read-out: Drug uptake
[30] = Ratio of drug level in liver to plasma in rat at 5 mg/kg, po after 24 hrs; type: ADME, organism-based; parameters: dose 5 mg/kg, route oral
[31] = Oral bioavailability in rat at 5 mg/kg after 24 hrs; type: ADME, organism-based; conditions: in vivo
[32] = AUC in rat at 5 mg/kg, po after 24 hrs; type: ADME, organism-based; parameters: time < 24 hr, dose 5 mg/kg, route oral; conditions: plasma

SMILES | concentration at 24 h [4] [nM] | bioavailability [5] [%] | AUC at 24 h [6] [µM·h] | Vd [7] [L/kg] | half-life [8] [h] | clearance [9] [mL/min/kg] | concentration at 4 h [11] [nM] | concentration at 4 h [12] [nM] | AUC at 4 h [13] [µM·h] | half-life [14] [h] | Vd [15] [L/kg] | clearance [16] [mL/min/kg] | Papp [17] [×10⁻⁶ cm/s] | further results
O=C([C@@H](c1ccccc1)N1CCCCC1)N1CCC[C@H]1c1ncc(-c2ccc(-c3ccc(-c4cnc([C@@H]5CCCN5C(=O)[C@@H](c5ccccc5)N5CCCCC5)[nH]4)cc3)cc2)[nH]1 | 8.3 | 14 | 0.272 | 10 | > 12 | 28 | 13 | 1200 | 0.047 | 7.7 | 20 | 63 | 25.1 | Stability (Liver microsome [1]): Unstable; Stability (Liver microsome [2]): Unstable; Stability (Liver microsome [3]): Stable; clearance [10]: 58 mL/min/kg; Stability (Liver microsome [18]): Stable
COC(=O)N[C@@H](C(=O)N1CCC[C@H]1c1ncc(-c2ccc(-c3ccc(-c4cnc([C@@H]5CCCN5C(=O)[C@H]5CCCO5)[nH]4)cc3)cc2)[nH]1)c1ccccc1 | 6 | 45 | 1.52 | 7.5 | > 10 | 22 | 234 | 2570 | 0.809 | 6.9 | 0.3 | 4.4 | 46.4 | bioavailability [19]: 17%; AUC at 24 h [20]: 15.1 µM·h; concentration at 24 h [21]: 253 nM; concentration at 24 h [22]: 59 nM; Vd [23]: 1.9 L/kg; half-life [24]: 2.9 h; clearance [25]: 5.3 mL/min/kg; concentration at 24 h [26]: 4.5 nM; Papp B→A [27]: 10.5 ×10⁻⁶ cm/s; Papp A→B [28]: < 1.5 ×10⁻⁶ cm/s; concentration at 24 h [29]: 116 nM; Kp at 24 h [30]: 26; bioavailability [31]: 6.8%; AUC at 24 h [32]: 1.83 µM·h
